# Measurements reported in PubChem BioAssay (NCI).
#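 48-hour exposure; five concentrations; linearly interpolated endpoints. TGI: concentration producing complete growth inhibition.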
# Assays:
# Test in all cases: NCI tumour cell line growth inhibition, 48 h
# 786-0 renal = system: 786-0 renal
# A498 renal = system: A498 renal
# A549 NSCLC = system: A549 NSCLC
# ACHN renal = system: ACHN renal
# BT-549 breast = system: BT-549 breast
# CAKI-1 renal = system: CAKI-1 renal
# CCRF-CEM leukemia = system: CCRF-CEM leukemia
# COLO 205 colon = system: COLO 205 colon
# DU-145 prostate = system: DU-145 prostate
# EKVX NSCLC = system: EKVX NSCLC
# HCC-2998 colon = system: HCC-2998 colon
# HCT-116 colon = system: HCT-116 colon
# HCT-15 colon = system: HCT-15 colon
# HL-60(TB) leukemia = system: HL-60(TB) leukemia
# HOP-62 NSCLC = system: HOP-62 NSCLC
# HOP-92 NSCLC = system: HOP-92 NSCLC
# HS 578T breast = system: HS 578T breast
# HT29 colon = system: HT29 colon
# IGROV1 ovarian = system: IGROV1 ovarian
# K-562 leukemia = system: K-562 leukemia
# KM12 colon = system: KM12 colon
# LOX IMVI melanoma = system: LOX IMVI melanoma
# M14 melanoma = system: M14 melanoma
# MALME-3M melanoma = system: MALME-3M melanoma
# MCF7 breast = system: MCF7 breast
# MDA-MB-231 breast = system: MDA-MB-231 breast
# MDA-N = system: MDA-N
# MOLT-4 leukemia = system: MOLT-4 leukemia
# NCI-H226 lung = system: NCI-H226 lung
# NCI-H23 lung = system: NCI-H23 lung
# NCI-H460 lung = system: NCI-H460 lung
# NCI-H522 lung = system: NCI-H522 lung
# NCI/ADR-RES ovarian = system: NCI/ADR-RES ovarian
# OVCAR-3 ovarian = system: OVCAR-3 ovarian
# OVCAR-4 ovarian = system: OVCAR-4 ovarian
# OVCAR-5 ovarian = system: OVCAR-5 ovarian
# OVCAR-8 ovarian = system: OVCAR-8 ovarian
# PC-3 prostate = system: PC-3 prostate
# RPMI-8226 leukemia = system: RPMI-8226 leukemia
# RXF 393 renal = system: RXF 393 renal
# SF-268 CNS = system: SF-268 CNS
# SF-295 CNS = system: SF-295 CNS
# SF-539 CNS = system: SF-539 CNS
# SK-MEL-2 melanoma = system: SK-MEL-2 melanoma
# SK-MEL-28 melanoma = system: SK-MEL-28 melanoma
# SK-MEL-5 melanoma = system: SK-MEL-5 melanoma
# SK-OV-3 ovarian = system: SK-OV-3 ovarian
# SN12C renal = system: SN12C renal
# SNB-19 CNS = system: SNB-19 CNS
# SNB-75 CNS = system: SNB-75 CNS
# SR leukemia = system: SR leukemia
# SW-620 colon = system: SW-620 colon
# T-47D breast = system: T-47D breast
# TK-10 renal = system: TK-10 renal
# U251 CNS = system: U251 CNS
# UACC-257 melanoma = system: UACC-257 melanoma
# UACC-62 melanoma = system: UACC-62 melanoma
# UO-31 renal = system: UO-31 renal
compound,measurement,setting,value
COc1cc(C2c3cc4c(cc3OC(NNC(N)=O)C2C)OCO4)cc(OC)c1O (stereo not drawn),TGI,786-0 renal,> 80.1 µM
same,TGI,A498 renal,35.7 µM
same,TGI,A549 NSCLC,> 80.9 µM
same,TGI,ACHN renal,> 100 µM
same,TGI,BT-549 breast,> 100 µM
same,TGI,CAKI-1 renal,> 100 µM
same,TGI,CCRF-CEM leukemia,> 100 µM
same,TGI,COLO 205 colon,9.4 µM
same,TGI,DU-145 prostate,33.7 µM
same,TGI,EKVX NSCLC,> 100 µM
same,TGI,HCC-2998 colon,6.5 µM
same,TGI,HCT-116 colon,> 56.5 µM
same,TGI,HCT-15 colon,> 100 µM
same,TGI,HL-60(TB) leukemia,7.84 µM
same,TGI,HOP-62 NSCLC,> 100 µM
same,TGI,HOP-92 NSCLC,> 90.2 µM
same,TGI,HS 578T breast,> 100 µM
same,TGI,HT29 colon,> 56.8 µM
same,TGI,IGROV1 ovarian,> 100 µM
same,TGI,K-562 leukemia,> 100 µM
same,TGI,KM12 colon,> 69.9 µM
same,TGI,LOX IMVI melanoma,> 100 µM
same,TGI,M14 melanoma,> 42.6 µM
same,TGI,MALME-3M melanoma,> 100 µM
same,TGI,MCF7 breast,> 55 µM
same,TGI,MDA-MB-231 breast,> 56.9 µM
same,TGI,MDA-N,1.02 µM
same,TGI,MOLT-4 leukemia,> 100 µM
same,TGI,NCI-H226 lung,27.1 µM
same,TGI,NCI-H23 lung,> 100 µM
same,TGI,NCI-H460 lung,> 100 µM
same,TGI,NCI-H522 lung,10.5 µM
same,TGI,NCI/ADR-RES ovarian,> 76.1 µM
same,TGI,OVCAR-3 ovarian,10.1 µM
same,TGI,OVCAR-4 ovarian,> 100 µM
same,TGI,OVCAR-5 ovarian,> 100 µM
same,TGI,OVCAR-8 ovarian,> 100 µM
same,TGI,PC-3 prostate,> 100 µM
same,TGI,RPMI-8226 leukemia,> 31.8 µM
same,TGI,RXF 393 renal,> 20.9 µM
same,TGI,SF-268 CNS,> 100 µM
same,TGI,SF-295 CNS,> 85.7 µM
same,TGI,SF-539 CNS,4.71 µM
same,TGI,SK-MEL-2 melanoma,> 74.4 µM
same,TGI,SK-MEL-28 melanoma,> 100 µM
same,TGI,SK-MEL-5 melanoma,18 µM
same,TGI,SK-OV-3 ovarian,> 51.5 µM
same,TGI,SN12C renal,> 90.4 µM
same,TGI,SNB-19 CNS,> 100 µM
same,TGI,SNB-75 CNS,> 100 µM
same,TGI,SR leukemia,> 100 µM
same,TGI,SW-620 colon,> 100 µM
same,TGI,T-47D breast,> 100 µM
same,TGI,TK-10 renal,> 73.8 µM
same,TGI,U251 CNS,> 53.1 µM
same,TGI,UACC-257 melanoma,> 100 µM
same,TGI,UACC-62 melanoma,> 100 µM
same,TGI,UO-31 renal,> 100 µM
